Test results taken from patent US20090118274A1, “MONOCYCLIC AMINOPROPYL TETRAHYDRO-PYRAZOLO-PYRIDINE MODULATORS OF CATHEPSIN S” (priority 2007, published 2009).
pIC50: −log10 of the molar value.

Biological target: T1, Recombinant human cathepsin S (CatS) (Homo sapiens, UniProt P25774)
T1 construct: made in house
Test: Recombinant human cathepsin S (CatS) fluorogenic substrate inhibition assay
Assay type: biochemical
Conditions: not given
Protocol: Recombinant human cathepsin S (CatS) was expressed in the baculovirus system and purified in one step with a thiopropyl-sepharose column. […] The assay is run in 150 mM sodium acetate pH 5.0 containing 1.5 mM DTT and 150 mM NaCl. […] Measurements are taken every min for 20 min. The rate is calculated from the slope of the increase in fluorescence and the percent inhibition is calculated from this.

T1 sequence (P25774 115-331): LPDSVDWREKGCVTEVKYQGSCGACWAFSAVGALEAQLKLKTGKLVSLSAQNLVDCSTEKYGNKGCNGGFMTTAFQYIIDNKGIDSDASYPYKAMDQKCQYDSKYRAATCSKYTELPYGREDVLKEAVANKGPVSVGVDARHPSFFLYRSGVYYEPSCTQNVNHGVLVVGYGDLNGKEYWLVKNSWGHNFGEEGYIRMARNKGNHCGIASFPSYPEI

Compared with `CS(=O)(=O)N1CCc2c(c(-c3ccc(Cl)c(CNC(=O)c4ccccc4)c3)nn2CCCN2CCCC2)C1` [Example 2, N-{2-Chloro-5-[5-methanesulfonyl-1-(3-pyrrolidin-1-yl-propyl)-4,5,6,7-tetrahydro-1H-pyrazolo[4,3-c]pyridin-3-yl]-benzyl}-benzamide], `CS(=O)(=O)N1CCc2c(c(-c3ccc(Cl)c(CNC(=O)c4ccc(F)cc4)c3)nn2CC(O)CN2CCC(C(F)(F)F)CC2)C1` (centres unmarked) [Example 15, N-(2-Chloro-5-{1-[2-hydroxy-3-(4-trifluoromethyl-piperidin-1-yl)-propyl]-5-methanesulfonyl-4,5,6,7-tetrahydro-1H-pyrazolo[4,3-c]pyridin-3-yl}-benzyl)-4-fluoro-benzamide] is 0.66 log units higher in pIC50: 6.49 for the first, 7.15 for the second. The second is the more potent here.

`CS(=O)(=O)N1CCc2c(c(-c3ccc(C(F)(F)F)c(CNC(=O)c4ccc(F)cc4)c3)nn2CC(O)CN2CCC(C(N)=O)CC2)C1` (centres unmarked) [Example 18, 1-[3-(3-[3-[(4-Fluoro-benzoylamino)-methyl]-4-trifluoromethyl-phenyl]-5-methanesulfonyl-4,5,6,7-tetrahydro-pyrazolo[4,3-c]pyridin-1-yl)-2-hydroxy-propyl]-piperidine-4-carboxylic acid amide] gave a pIC50 of 7.15.

Same assay, conditions: average of results obtained; substrate Z-Valine-Valine-Arginine-AMC 10 μM, pH 5.0; read-out: CatS IC50

`CS(=O)(=O)N1CCc2c(c(-c3ccc(Cl)c(COC(=O)c4ccc(F)cc4)c3)nn2CCCN2CCCC2)C1` [Example 3, 4-Fluoro-benzoic acid 2-chloro-5-[5-methanesulfonyl-1-(3-pyrrolidin-1-yl-propyl)-4,5,6,7-tetrahydro-1H-pyrazolo[4,3-c]pyridin-3-yl]-benzyl ester] and `CS(=O)(=O)N1CCc2c(c(-c3ccc(Cl)c(COCc4ccc(F)cc4)c3)nn2CCCN2CCCC2)C1` [Example 4, 3-[4-Chloro-3-(4-fluoro-benzyloxymethyl)-phenyl]-5-methanesulfonyl-1-(3-pyrrolidin-1-yl-propyl)-4,5,6,7-tetrahydro-1H-pyrazolo[4,3-c]pyridine] are within 0.2 log units of each other in pIC50: 5.88 for the first, 5.84 for the second.

Going from `CN(C)C1CCN(CCCn2nc(-c3ccc(C(F)(F)F)c(CNC(=O)c4ccc(F)cc4)c3)c3c2CCN(S(C)(=O)=O)C3)C1` (centres unmarked) [Example 5, N-(5-{1-[3-(3-Dimethylamino-pyrrolidin-1-yl)-propyl]-5-methanesulfonyl-4,5,6,7-tetrahydro-1H-pyrazolo[4,3-c]pyridin-3-yl}-2-trifluoromethyl-benzyl)-4-fluoro-benzamide] to `CN(C)C1CCN(CC(O)Cn2nc(-c3ccc(C(F)(F)F)c(CNC(=O)c4ccc(F)cc4)c3)c3c2CCN(S(C)(=O)=O)C3)C1` (centres unmarked) [Example 26, N-(5-{1-[3-(3-Dimethylamino-pyrrolidin-1-yl)-2-hydroxy-propyl]-5-methanesulfonyl-4,5,6,7-tetrahydro-1H-pyrazolo[4,3-c]pyridin-3-yl}-2-trifluoromethyl-benzyl)-4-fluoro-benzamide], the pIC50 falls from 6.82 to 6.44 (0.38 log units). The first is the more potent here.

First: CC(=O)N1CCc2c(c(-c3ccc(C(F)(F)F)c(CNC(=O)c4ccc(F)cc4)c3)nn2CC(O)CN2CCC3(CCNC3=O)CC2)C1 (centres unmarked) [Example 7, N-(5-{5-Acetyl-1-[2-hydroxy-3-(1-oxo-2,8-diaza-spiro[4.5]dec-8-yl)-propyl]-4,5,6,7-tetrahydro-1H-pyrazolo[4,3-c]pyridin-3-yl}-2-trifluoromethylbenzyl)-4-fluoro-benzamide]
Second: NC(=O)N1CCc2c(c(-c3ccc(C(F)(F)F)c(CNC(=O)c4ccc(F)cc4)c3)nn2CC(O)CN2CCC3(CCNC3=O)CC2)C1 (centres unmarked) [Example 9, 3-{3-[(4-Fluoro-benzoylamino)-methyl]-4-trifluoromethyl-phenyl}-1-[2-hydroxy-3-(1-oxo-2,8-diaza-spiro[4.5]dec-8-yl)-propyl]-1,4,6,7-tetrahydro-pyrazolo[4,3-c]pyridine-5-carboxylic acid amide]
The pIC50 of the first is 0.25 log units lower: 7.15 for the first, 7.40 for the second.

Going from `O=C(NCc1cc(-c2nn(CC(O)CN3CCC4(CCNC4=O)CC3)c3c2CN(C(=O)CO)CC3)ccc1C(F)(F)F)c1ccc(F)cc1` (centres unmarked) [Example 8, 4-Fluoro-N-(5-{5-(2-hydroxy-acetyl)-1-[2-hydroxy-3-(1-oxo-2,8-diazaspiro[4.5]dec-8-yl)-propyl]-4,5,6,7-tetrahydro-1H-pyrazolo[4,3-c]pyridin-3-yl}-2-trifluoromethyl-benzyl)-benzamide] to `CS(=O)(=O)N1CCc2c(c(-c3ccc(C(F)(F)F)c(CNC(=O)c4ccc(F)cc4)c3)nn2CC(O)CN2CCC3(CCNC3=O)CC2)C1` (centres unmarked) [Example 16, 4-Fluoro-N-(5-{1-[2-hydroxy-3-(1-oxo-2,8-diaza-spiro[4.5]dec-8-yl)-propyl]-5-methanesulfonyl-4,5,6,7-tetrahydro-1H-pyrazolo[4,3-c]pyridin-3-yl}-2-trifluoromethyl-benzyl)-benzamide], the pIC50 falls from 7.70 to 7.22 (0.48 log units).

`CS(=O)(=O)N1CCc2c(c(-c3ccc(Cl)c(CNC(=O)c4ccc(F)cc4)c3)nn2CC(O)CN2CCC(F)(F)CC2)C1` (centres unmarked) [Example 10, N-(2-Chloro-5-{1-[3-(4,4-difluoro-piperidin-1-yl)-2-hydroxy-propyl]-5-methanesulfonyl-4,5,6,7-tetrahydro-1H-pyrazolo[4,3-c]pyridin-3-yl}-benzyl)-4-fluoro-benzamide] and `CS(=O)(=O)N1CCc2c(c(-c3ccc(Cl)c(CNC(=O)c4ccc(F)cc4)c3)nn2CC(O)CN2CCC3(CCNC3=O)CC2)C1` (centres unmarked) [Example 11, N-(2-Chloro-5-{1-[2-hydroxy-3-(1-oxo-2,8-diaza-spiro[4.5]dec-8-yl)-propyl]-5-methanesulfonyl-4,5,6,7-tetrahydro-1H-pyrazolo[4,3-c]pyridin-3-yl}-benzyl)-4-fluoro-benzamide] are the same in pIC50: 7.05 for the first, 7.05 for the second.

Compared with `CS(=O)(=O)N1CCc2c(c(-c3ccc(Cl)c(CNC(=O)c4ccc(F)cc4)c3)nn2CC(O)CN2CCC(C(N)=O)CC2)C1` (centres unmarked) [Example 12, 1-[3-(3-{4-Chloro-3-[(4-fluoro-benzoylamino)-methyl]-phenyl}-5-methanesulfonyl-4,5,6,7-tetrahydro-pyrazolo[4,3-c]pyridin-1-yl)-2-hydroxy-propyl]-piperidine-4-carboxylic acid amide], `CC(=O)NC1CCN(CC(O)Cn2nc(-c3ccc(Cl)c(CNC(=O)c4ccc(F)cc4)c3)c3c2CCN(S(C)(=O)=O)C3)CC1` (centres unmarked) [Example 13, N-(5-{1-[3-(4-Acetylamino-piperidin-1-yl)-2-hydroxy-propyl]-5-methanesulfonyl-4,5,6,7-tetrahydro-1H-pyrazolo[4,3-c]pyridin-3-yl}-2-chloro-benzyl)-4-fluoro-benzamide] is 0.25 log units higher in pIC50: 7.15 for the first, 7.40 for the second. The second is the more potent here.

`CS(=O)(=O)N1CCc2c(c(-c3ccc(C(F)(F)F)c(CNC(=O)c4ccc(F)cc4)c3)nn2CC(O)CN2CCNC(=O)C2)C1` (centres unmarked) [Example 19, 4-Fluoro-N-(5-{1-[2-hydroxy-3-(3-oxo-piperazin-1-yl)-propyl]-5-methanesulfonyl-4,5,6,7-tetrahydro-1H-pyrazolo[4,3-c]pyridin-3-yl}-2-trifluoromethyl-benzyl)-benzamide] and `CS(=O)(=O)N1CCc2c(c(-c3ccc(C(F)(F)F)c(CNC(=O)c4ccc(F)cc4)c3)nn2CC(O)CN2CCC(O)C2)C1` (centres unmarked) [Example 27, 4-Fluoro-N-(5-{1-[2-hydroxy-3-(3-hydroxy-pyrrolidin-1-yl)-propyl]-5-methanesulfonyl-4,5,6,7-tetrahydro-1H-pyrazolo[4,3-c]pyridin-3-yl}-2-trifluoromethyl-benzyl)-benzamide] are within 0.2 log units of each other in pIC50: 6.48 for the first, 6.64 for the second.

`CC(C)N1CCN(CC(O)Cn2nc(-c3ccc(C(F)(F)F)c(CNC(=O)c4ccc(F)cc4)c3)c3c2CCN(S(C)(=O)=O)C3)CC1` (centres unmarked) [Example 20, 4-Fluoro-N-(5-{1-[2-hydroxy-3-(4-isopropyl-piperazin-1-yl)-propyl]-5-methanesulfonyl-4,5,6,7-tetrahydro-1H-pyrazolo[4,3-c]pyridin-3-yl}-2-trifluoromethyl-benzyl)-benzamide] and `CC(=O)N1CCN(CC(O)Cn2nc(-c3ccc(C(F)(F)F)c(CNC(=O)c4ccc(F)cc4)c3)c3c2CCN(S(C)(=O)=O)C3)CC1` (centres unmarked) [Example 21, N-(5-{1-[3-(4-Acetyl-piperazin-1-yl)-2-hydroxy-propyl]-5-methanesulfonyl-4,5,6,7-tetrahydro-1H-pyrazolo[4,3-c]pyridin-3-yl}-2-trifluoromethyl-benzyl)-4-fluoro-benzamide] are within 0.2 log units of each other in pIC50: 6.40 for the first, 6.52 for the second.

Going from `CC1CCN(CC(O)Cn2nc(-c3ccc(C(F)(F)F)c(CNC(=O)c4ccc(F)cc4)c3)c3c2CCN(S(C)(=O)=O)C3)CC1` (centres unmarked) [Example 22, 4-Fluoro-N-(5-{1-[2-hydroxy-3-(4-methyl-piperidin-1-yl)-propyl]-5-methanesulfonyl-4,5,6,7-tetrahydro-1H-pyrazolo[4,3-c]pyridin-3-yl}-2-trifluoromethyl-benzyl)-benzamide] to `CS(=O)(=O)N1CCc2c(c(-c3ccc(C(F)(F)F)c(CNC(=O)c4ccc(F)cc4)c3)nn2CC(O)CN2CCC(O)CC2)C1` (centres unmarked) [Example 25, 4-Fluoro-N-(5-{1-[2-hydroxy-3-(4-hydroxy-piperidin-1-yl)-propyl]-5-methanesulfonyl-4,5,6,7-tetrahydro-1H-pyrazolo[4,3-c]pyridin-3-yl}-2-trifluoromethyl-benzyl)-benzamide], the pIC50 falls from 7.00 to 6.77 (0.23 log units).

First: CS(=O)(=O)N1CCc2c(c(-c3ccc(C(F)(F)F)c(CNC(=O)c4ccc(F)cc4)c3)nn2CC(O)CN2CCOCC2)C1 (centres unmarked) [Example 23, 4-Fluoro-N-{5-[1-(2-hydroxy-3-morpholin-4-yl-propyl)-5-methanesulfonyl-4,5,6,7-tetrahydro-1H-pyrazolo[4,3-c]pyridin-3-yl]-2-trifluoromethyl-benzyl}-benzamide]
Second: CS(=O)(=O)N1CCc2c(c(-c3ccc(C(F)(F)F)c(CNC(=O)c4ccc(F)cc4)c3)nn2CC(O)CN2CCCCC2)C1 (centres unmarked) [Example 24, 4-Fluoro-N-{5-[1-(2-hydroxy-3-piperidin-1-yl-propyl)-5-methanesulfonyl-4,5,6,7-tetrahydro-1H-pyrazolo[4,3-c]pyridin-3-yl]-2-trifluoromethyl-benzyl}-benzamide]
The pIC50 of the first is 0.22 log units higher: 6.82 for the first, 6.60 for the second.
